According to patent publication US11421218B2, “Methods for enhancing the efficiency of gene editing” (Dana-Farber Cancer Institute, Inc., priority 2016, dated 2022):
Entries after “also recorded” stand apart in the source; their conditions may differ.

Tests used:
[1] = test system: TGFβ signaling; assay: Physiological stress (pIpC)-induced bone marrow failure in mice; settings: pretreated in vivo
Excerpt: (§1) FIG. 6A is a schematic showing that wild-type or Fancd2-deficient mice were exposed to the physiologic stress, pIpC. Mice were pretreated in vivo with either no Tgfβ inhibitor, the neutralizing antibody to Tgfβ 1, 2, 3, or the Tgfβ receptor kinase inhibitor, Galunisertib. Long-term HSCs (LT-HSCs) were isolated and subjected to functional tests.

[2] = test system: gamma H2AX foci; assay: pIpC stress in mice, gamma H2AX foci; settings: wild-type or Fancd2-deficient mice, pretreated in vivo
Excerpt: as §1

[3] = test system: LT-HSCs; assay: pIpC stress in mice, comet assay on LT-HSCs; settings: wild-type or Fancd2-deficient mice, pretreated in vivo
Excerpt: as §1

[4] = test system: U2OS cells with DR-GFP reporter; assay: Homologous recombination assay, U2OS cells with DR-GFP reporter; format: cell-based; settings: 10 μM
Description: Homologous recombination assay was measured in U2OS cells with DR-GFP reporter after treatment with 10 μM RI-1 and 10 μM B02. The representative of two independent experiments is presented.
HR assay was measured in U2OS cells with DR-GFP reporter after transduction with lentivirus encoding indicated shRNAs. The representative of three independent experiments is presented.

[5] = test system: HSPCs; assay: HSPC survival with RAD51 inhibitors (cytotoxicity); format: cell-based; settings: HSPCs from WT or Fancd2−/− mice, 10 μM, in vitro five days
Description: HSPCs from WT or Fancd2−/− mice were treated with B02 (10 μM) or RI-1 (10 μM) in vitro for five days and survival was determined.

[6] = test system: RAD51 foci; assay: RAD51 foci formation by immunofluorescence in MMC-treated GM6914 cells; format: cell-based; settings: GM6914 (FA-A) or GM6914+FANCA cells, 1 μM MMC, 10 μM inhibitors, 6 h
Description: GM6914 (FA-A) cells or corrected GM6914+FANCA cells were treated with 1 μMMMC and 10 μM inhibitors for 6 h before immunofluorescence analysis. Representative images (FIG. 3E) and quantification (FIG. 3F) of RAD51 foci are shown, (Scale bar: 50 μm).

[7] = test system: GM6914 cells (FA-A cells); assay: Traffic light reporter assay of HR and NHEJ repair events; format: cell-based; settings: GM6914 cells exposed to SD-208 for 72 hrs
Excerpt: FIGS. 4A-4B are graphs showing that TGF-β pathway inhibition affects the choice of HR versus NHEJ pathways in repairing individual DNA breakpoints in FA cells. GM6914 cells (FA-A cells) or FANCA corrected GM6914 cells with shControl or shSMAD3 were used to generate traffic light reporter system, and then were infected with GFP-donor template and I-SceI lentivirus to generate DNA breakpoints. Quantification analysis of HR and NHEJ repair events is shown. (FIG. 4B) The ratio of HR to NHEJ activity based on the data in (FIG. 4A).
Quantification of HR and NHEJ repair events in GM6914 cells exposed to SD-208 for 72 hrs as detected by traffic light reporter assay described in FIG. 4A.
FIG. 5A is a schematic of traffic light reporter assay. Endonuclease 1-SceI induces double strand break (DSB) in the restriction site. […]
FIG. 5B is a graph showing HR and NHEJ repair analyzed by traffic light reporter (TLR) system. […] HR and NHEJ repair events (GFP or mCherry positive cells) were quantified by flow cytometry.
To directly confirm that inhibition of TGF-β pathway modulates HR or NHEJ activity, we engineered an individual DNA breakpoint in FA (GM6914) cells and employed the traffic light reporter […] system which quantifies both HR and NHEJ activities (Certo et al., 2011). […]

SMILES	HR efficiency [4]	cytotoxicity in HSPCs (survival) [5]	RAD51 foci formation [6]	also measured
Cc1cccc(-c2nn3c(c2-c2ccnc4ccc(C(N)=O)cc24)CCC3)n1 [Galunisertib, 4-[2-(6-methylpyridin-2-yl)-5,6-dihydro-4H-pyrrolo[1,2-b]pyrazol-3-yl]quinoline-6-carboxamide]				physiological stress-induced bone marrow failure [1]: rescues physiological stress-induced bone marrow failure in mice; pIpC-induced DNA damage, gamma H2AX foci [2]: rescued the pIpC-induced DNA damage; pIpC-induced DNA damage in LT-HSCs, comet assay [3]: rescued the pIpC-induced DNA damage
O=c1c2ccccc2nc(/C=C/c2cccnc2)n1Cc1ccccc1 [B02]	significantly decrease HR efficiency	do not show cytotoxicity in HSPCs	efficiently block RAD51 foci formation	
Fc1ccc(Cl)cc1-c1nc(Nc2ccncc2)c2nccnc2n1 [SD208, 2-(5-Chloro-2-fluorophenyl)-4-[(4-pyridyl)amino]pteridine]				HR repair events [7]: increased HR activity in FA cells; also recorded: increases FIR events; NHEJ repair events [7]: decreases NHEJ events
O=C1C(Cl)=C(N2CCOCC2)C(=O)N1c1ccc(Cl)c(Cl)c1 [RI-1]	significantly decrease HR efficiency	do not show cytotoxicity in HSPCs	efficiently block RAD51 foci formation	
